The text below walks through data of patent publication US20260265178A1, “TERTIARY AMINE DERIVATIVES AND THEIR USES FOR TREATING A VIRAL INFECTION” (ENYO PHARMA, priority 2022, published 2026).

pIC50: −log10 of the molar value. Like-named read-outs stand apart in the source and are kept apart here. Where only a bound is given, the exact number is not on record here.

Experiment [1] has as its system Respiratory Syncytial Virus (RSV). As to the kind of experiment: Cytopathic effect (CPE) assay, HEp-2 cells infected by RSV, CellTiter-Glo viability readout. The experiment is classed as cell-based. The conditions noted are these: for pIC50: read-out: IC50. The method, then:
Cytopathic Effect (CPE) Assay Experimental Procedure:
• RSV titer: 6.9×10^6 pfu/ml • MOI=pfu used for infection/cell number • 1) HEp-2 cells were seeded in 384-well plates at 5000 cells per well in 25 μl assay medium and incubated for 24 h at 37° C. in 5% CO2. Cells were seeded in each well expect for the top row, which contains medium only (low control). • 2) Compounds were dispensed using the Echo550 Liquid Handler. All compounds were used at 10 mM stock concentration. The positive control Ribavirin was included as control compound in all assays. • 3) Cells were expected to double once over 24 h. • 4) The cells were infected the next day at RSV MOI 0.5, adding 5 μl virus diluted in assay medium. • 5) Non-infected cells were treated with 5 μl assay medium (high control) • 6) Plates were centrifuged at 400 rpm, 10 sec to allow the virus to sink onto the cells. • 7) Cells were incubated at 37° C. in 5% CO2 for 3 days. • 8) 10 μl CellTiter-Glo® (Promega) was added to all wells. • 9) The plate was incubated at RT for 30 min. • 10) Luminescence was measured on the Envision plate reader.
For orientation: Damage to the host cells serves as the signal in cytopathic effect assays.

Experiment [2] deals with recombinant HRSV expressing the firefly luciferase. As to the kind of experiment: In vivo anti-hRSV activity in a mouse model of infection (recombinant HRSV expressing firefly luciferase, bioluminescence). The note with it: BALB/C mice, 1 mpk intranasally, 5 days post infection, versus mock-treated, p<0.05. The method, then:
FIG. 24: In vivo evaluation of compound #21 anti-hRSV activity in a mouse model of infection. FIG. 24A: Bioluminescence was measured by intranasal injection of 50 μl of D-luciferin (200 mM) and capture of photon emission from the chest at 5 days post infection using the IVIS system. Dorsal and ventral views of mice representative of the results are shown. FIG. 24B: Comparative bioluminescence between compound #21 and mock-treated mice 5 days post infection. Each data point represents mean±s.e.m. Brown-Forsythe Test and Welch ANOVA followed by Dunnett's multiple comparison test; * p<0.05
An engineered recombinant HRSV expressing the firefly luciferase was used in a mouse model of infection described in Rameix-Welti et al., Nature Communications, 2014. BALB/C mice were infected with 50×10^4 p.f.u. of virus and treated intranasally by 1 mpk compound #21 or vehicle (10 mice/group). Bioluminescence was measured by intranasal injection of 50 μl of D-luciferin (200 mM) and capture of photon emission from the chest at 5 days post infection using the IVIS system.
Dorsal and ventral views of mice representative of the results are shown at FIG. 24A. Comparative bioluminescence between compound #21 and mock-treated mice 5 days post infection are shown at FIG. 24B. Each data point represents mean±s.e.m. Brown-Forsythe Test and Welch ANOVA followed by Dunnett's multiple comparison test; * p<0.05.

Where [3] appears, read: HEp-2 cells, RSV MOI 0.5, 3 days, CellTiter-Glo luminescence.
Where [4] appears, read: human respiratory syncytial virus, 72 h, HEp-2 cells, RSV MOI 0.5, 3 days, CellTiter-Glo luminescence.

The pIC50 is −log10 of the IC50, conventionally taken in molar units. Turning to `COC(=O)c1cccc(CN(Cc2cccc(C(=O)OC)c2)[C@H](CO)c2cccc(Br)c2)c1` [Compound #3], the pIC50 in experiment [1] (setting [3]) is 5.47.

As to `COC[C@H](c1cccc(Br)c1)N(Cc1cccc(C(=O)OC)c1)Cc1cccc(C(=O)OC)c1` [Compound #4], the pIC50 in experiment [1] (setting [3]) was 8.15. Consider `COC[C@H](c1cccc(C(=O)O)c1)N(Cc1cccc(C(=O)OC)c1)Cc1cccc(C(=O)OC)c1` [Compound #5], for which the pIC50 in experiment [1] (setting [3]) was 5.70. As to `COC[C@H](c1cccc(C(=O)O)c1)N(Cc1cccc(C(=O)O)c1)Cc1cccc(C(=O)O)c1` [Compound #6], the pIC50 in experiment [1] (setting [3]) is 6.70. Turning to `NC(=O)c1cccc(CN(Cc2cccc(C(N)=O)c2)Cc2ccc3[nH]ncc3c2)c1` [Compound #7], the pIC50 in experiment [1] (setting [4]) is 5.41. In the case of `NC(=O)c1cccc(CN(Cc2cccc(C(N)=O)c2)C[C@@H]2CCCN(C(N)=O)C2)c1` [Compound #8], in experiment [1] (setting [4]), the pIC50 was 7.00. In the case of `CNC(=O)COCCN(Cc1cccc(C(N)=O)c1)Cc1cccc(C(N)=O)c1` [Compound #9], the pIC50 in experiment [1] (setting [4]) is 5.70. On to `COc1ccc(CN(Cc2cccc(C(N)=O)c2)Cc2cccc(C(N)=O)c2)cc1C(N)=O` [Compound #10], for which the pIC50 in experiment [1] (setting [4]) is 8.30. Take `NC(=O)c1cccc(CN(Cc2cccc(C(N)=O)c2)C[C@H]2CCCN(C(N)=O)C2)c1` [Compound #11]: the pIC50 in experiment [1] (setting [4]) is 8.35.

As to `NC(=O)c1cccc(CN(Cc2cccc(C(N)=O)c2)CC2CCCNC2)c1` (stereo not drawn) [Compound #12], in experiment [1] (setting [4]), the pIC50 is 6.89. `C[C@@H](c1cccc(C(N)=O)c1)N(Cc1cccc(C(N)=O)c1)Cc1cccc(C(N)=O)c1` [Compound #13]: the pIC50 in experiment [1] (setting [4]) is 8.36. For the compound `COc1cc(CN(Cc2cccc(C(N)=O)c2)Cc2cccc(C(N)=O)c2)cc(C(N)=O)c1` [Compound #14], in experiment [1] (setting [4]), the pIC50 was 7.15.

For the compound `CC(c1cccc(C(N)=O)c1)N(Cc1cccc(C(N)=O)c1)Cc1cccc(C(N)=O)c1` (stereo not drawn) [Compound #15], the pIC50 in experiment [1] (setting [4]) is 8.82. Take `NC(=O)COCCN(Cc1cccc(C(N)=O)c1)Cc1cccc(C(N)=O)c1` [Compound #16]: the pIC50 in experiment [1] (setting [4]) is 6.46. In the case of `NC(=O)c1cccc(CN(Cc2cccc(C(N)=O)c2)CC2CCN(C(N)=O)C2)c1` (stereo not drawn) [Compound #17], the IC50 entry in experiment [1] (setting [3]) is given as “Not calculable”. Turning to `NC(=O)c1cccc(CN(Cc2cccc(C(N)=O)c2)CC2CCCN(C(N)=O)C2)c1` (stereo not drawn) [Compound #18], the pIC50 in experiment [1] (setting [4]) is 8.10. As to `NC(=O)c1cccc(CN(Cc2cccc(C(N)=O)c2)CC2(F)CCCN(C(N)=O)C2)c1` (stereo not drawn) [Compound #20], the pIC50 in experiment [1] (setting [4]) was 6.89. For `COC[C@H](c1cccc(C(N)=O)c1)N(Cc1cccc(C(N)=O)c1)Cc1cccc(C(N)=O)c1` [Compound #21, 3-[[[(1S)-1-(3-carbamoylphenyl)-2-methoxy-ethyl]-[(3-carbamoylphenyl)methyl]amino]methyl]benzamide], the “bioluminescent signal in the lung” value in experiment [2] is reported as “significantly reduced”. The “% viability of cells infected by RSV” value in experiment [1] (compared with comparative and positive control compounds, FIGS. 1-23A) is “higher % of viability”. Further, the “IC50 times lower than IC50 of comparative compounds” value in experiment [1] (compound #21 versus comparative compounds) was ≥ 7 times. Besides, in experiment [1] (compound #21 versus compound #4), the “IC50 times lower than IC50 of the closest structural compound #4” value was “around 50 times”. Besides, the pIC50 in experiment [1] (setting [4]) was 9.82. Regarding `Cc1cn2nc([C@@H]3CCCCN3C(=O)c3cc(Cl)ccc3NS(C)(=O)=O)cc2nc1N1CC[C@H](N)C1` [Presatovir], the pIC50 in experiment [1] (setting [4]) was 8.96. Take `NC(=O)c1ncn([C@@H]2O[C@H](CO)[C@@H](O)[C@H]2O)n1` [Ribavirin]: the pIC50 in experiment [1] (setting [4]) is 4.82.
